# Results: a melting point compilation (Tetko et al.; mined from patent text by program, amines drawn as free bases though some values may be those of a salt)
row,melting point,Compound
1,122 to 125 °C,COC(=O)Cc1cn(C(c2ccccc2)(c2ccccc2)c2ccccc2)cn1
2,232 to 233 °C,COc1ccccc1NC(=O)Nc1nc(Oc2ccc3ccccc3c2)nc(N(CCC(=O)O)Cc2ccccc2C(F)(F)F)n1
3,92 to 93 °C,COc1ccc(Cl)c(NC(C)=S)c1
4,166 °C,Cc1ccnc(C(=O)c2[nH]c3ccc(Cl)cc3c2CC(=O)NCCN)c1
5,77 °C,COc1ccc(Oc2cc3ccc(Cl)cc3cn2)cc1
6,132 to 133 °C,CN1CCN(Cc2ccc(NC(=O)c3ccc(Cl)c(C#Cc4ccc(NC5CCC5)nn4)c3)cc2C(F)(F)F)CC1
7,152 to 158 °C,O=C(NCCCN1CCN(c2ccccc2OCC(F)(F)F)CC1)c1csc2c(=O)cc(-c3ccccc3)oc12
8,135 to 137 °C,CNCC(=O)N1c2ccccc2N(C)S(=O)(=O)c2ccccc21
9,74 °C,CC(C)(C)OC(=O)C(Nc1ccccc1)c1ccccc1Cl (racemic)
10,144 to 150 °C,CCCCC(CC(=O)Nc1cc(C(N)=O)ccc1C(C)(C)C)c1cc(Cl)c(OCCCS(=O)(=O)CCC)cc1OC (stereo unspecified)
11,244 °C,Cc1nc(-c2ccc(C(F)(F)F)cc2)[nH]c1CN1CCN(C(c2ccccc2)c2ccccc2)CC1
12,121 to 123 °C,O=C(O)C(=O)c1ccc(OCCOc2ccc(C(F)(F)F)cc2)cc1
13,> 250 °C,O=C(NS(=O)(=O)c1cc(C(F)(F)F)ccc1Cl)c1cn2cc(Br)cnc2n1
14,134 to 135 °C,COC(OC)C(CNC(=O)c1cc2cc(O)cc([N+](=O)[O-])c2[nH]1)SCc1ccccc1 (stereo unspecified)
15,204 to 206 °C,O=C(Nc1ccc2ccc(-c3cccc(Br)c3)nc2n1)c1ccccc1
16,245 to 246 °C,Cc1ccc2nc(NC(=O)c3ccc(C(C)(C)CCc4nnn[nH]4)cc3)cn2c1
17,229 to 230 °C,COc1ccc(Oc2c([N+](=O)[O-])cc(C(=O)O)cc2S(N)(=O)=O)cc1
18,260 to 262 °C,CC(=O)Nc1ccc2c(c1)S(=O)(=O)N=C(NC(C)C)N2

row,melting point,Compound
1,180 to 187 °C,CC(=O)Nc1cc(Br)nn1-c1c(Cl)cc(C(F)(F)F)cc1Cl
2,119 to 121 °C,Cc1cc(C=O)ccc1C(N)=O
3,195 to 197 °C,COn1c(Br)c(C#N)c(Br)c1-c1ccc(Cl)cc1
4,255 to 257 °C,COc1ccc2c(c1)c1c3c(c(-c4ccccc4Cl)cc1n2CCO)C(=O)NC3=O
5,186 °C,CCOC(=O)c1c(Cl)c2ccccc2[nH]c1=O
6,165 to 168 °C,CSCc1ccc(NC(=O)/C=C/c2cnn(C)c2-c2ccc(F)cc2)cc1
7,137 to 140 °C,CCOC(=O)C(=CNc1nncs1)C(=O)c1cc(F)c(Cl)nc1Cl
8,81 to 85 °C,O=C(Nc1cc(Cl)c(N2CCNCC2)c(Cl)c1)c1ccc(F)c(OCc2cccnc2)c1
9,152 to 153 °C,COc1cc2ncnc(Oc3cccc(Cl)c3)c2cc1OC
10,42 to 44 °C,CCCC(=O)c1ccc(OC)c(Cl)c1Cl
11,169 to 171 °C,CC(=O)Nc1ccc(Nc2ccccc2)cc1
12,137 to 139 °C,COc1ccc(F)c(F)c1C(=O)c1cnc(Cl)nc1Cl
13,165 to 167 °C,COC(=O)[C@@H]1CCCN1S(=O)(=O)c1ccc(Cl)c(COc2cccc3cc(C(F)(F)F)c(C)nc23)c1Cl
14,256 °C,Cc1cc(O)cc2oc(=O)ccc12
15,266 to 270 °C,N#CC(=Cc1cc(O)c(O)c(Br)c1)C(=O)Nc1cccc(Cl)c1
16,190 to 192 °C,C=CCN(CC)c1ccc2[nH]c3cnc(C(=O)OCC)cc3c2c1
17,260 °C,O=P1(O)Oc2c(Cl)cc(Cl)cc2-c2ccc(Cl)cc21

# The next lines start with the molecule.
row,Compound,melting point
1,Cc1nnc2n1-c1ccc([N+](=O)[O-])cc1C(c1ccccc1Cl)=CC2,225 to 227 °C
2,O=Cc1ccc(F)c(F)c1,95 to 96 °C
3,CC(=O)SC(CC(=O)c1ccc(F)cc1)C(=O)O (stereo unspecified),108 to 110 °C
4,O=S(=O)(Cc1ccccc1)C1CCN(Cc2ccccc2)CC1,120 to 121 °C
5,CCN(c1cccc2cc(-c3ncc(COc4ccc(C(=O)OC)cc4)s3)[nH]c12)S(=O)(=O)c1cccs1,191 °C
6,COC(=O)c1sc2cccc(OC)c2c1N(C)C,69 to 73 °C
7,CC(C)(C)OC(=O)N1CCN(c2ccc(C(=O)CSc3ccnc4ccccc34)cc2)CC1,153 to 154 °C
8,CCCOc1ccc(S(=O)(=O)NCCc2c[nH]cn2)cc1-c1nc2cc(N)c([N+](=O)[O-])cc2c(=O)[nH]1,169 to 172 °C
9,CC12CCC(C(=O)O)=CC1=CCC1C2CCC2(C)C(C(=O)c3ccc(F)cc3)CCC12 (stereo unspecified),255 °C
10,COc1cc2ncnc(N3CCN(C(=O)Nc4ccc(N=Nc5ccccc5)cc4)CC3)c2cc1OC,244 to 246 °C
11,O=C1NC(=O)C(Cc2ccc(SCCCc3ccccc3)cc2)S1 (stereo unspecified),88 to 89 °C
12,CC(=O)NC[C@H]1CN(c2ccc(N3CCC4(CC3)C[C@@H]4C#N)c(F)c2)C(=O)O1,156 °C
13,CC(C)(C)[Si](C)(C)O[C@H](/C=C/[C@@H]1[C@H]2CC(=O)O[C@H]2C[C@H]1O[Si](C)(C)C(C)(C)C)COc1cccc(C(F)(F)F)c1,91 to 93 °C
14,O=C(O)c1ccc(OCCCCCCc2ccc3cc(O)c(O)cc3c2)cc1,160 to 162 °C
15,CC(C)CC(C#N)(C#N)Cc1ccc(Cl)cc1,73.2 °C
16,COc1ccc2c(c1)OC(CN1CC=C(c3c[nH]c4ccccc34)CC1)CO2 (stereo unspecified),166 to 168 °C
17,Cc1cc(OCCCCOc2ccc([N+](=O)[O-])c(C)c2)ccc1[N+](=O)[O-],108 to 110 °C
18,O=C1CCN(Cc2ccccc2O)CC1C(c1ccc(F)cc1)c1ccc(F)cc1 (stereo unspecified),151 to 152 °C
19,C=CCNC(=O)[C@H]1N(C(=O)[C@@H](O)[C@H](Cc2ccccc2)NC(=O)c2cccc(O)c2C)CSC1(C)C,173 to 175 °C
20,COc1ccc2c(c1)CCC(N(C)c1ccc(O)cc1)C2 (stereo unspecified),79 to 82 °C
21,CCOC(=O)COc1c(Cl)c(O)c2c(c1Cl)OC1(CCCCC1)CC2=O,134 to 135 °C

row,Compound,melting point
1,O=C1CC(CCc2ccccc2)Nc2ccccc2N1Cc1ccccc1 (stereo unspecified),135 to 137 °C
2,CC(C)(C)c1cccc(C(C)(C)C)c1C(OC(N)=O)S(=O)(=O)NC(c1ccccc1)c1ccccc1 (stereo unspecified),175 to 178 °C
3,O=C1CCC(N2C(=O)c3cccc(NCc4cccc(Cl)c4)c3C2=O)C(=O)N1 (stereo unspecified),207 to 209 °C
4,CC(C)C(=O)N[C@@H](CS)C(=O)O,103 to 104 °C
5,CC(=O)N(CCOc1ccc(CC2SC(=O)NC2=O)cc1)c1ncccn1 (stereo unspecified),137 °C
6,COc1ccc(C2(O)CC3CCC(C2)N3C)cc1 (stereo unspecified),162 °C
7,CCOC(=O)c1csc(-c2ccc3cc(O)c(C45CC6CC(CC(C6)C4)C5)cc3c2)c1,199 to 200 °C
8,CCN1C(=O)CNCc2cc(OC)c([N+](=O)[O-])cc21,132 to 134 °C
9,CC(C)c1nc2c(nc1C(C)C)-c1c(c(-c3ccc(C(=O)O)cc3)cn1Cc1cccnc1)CC2,100 to 102 °C
10,CN(C)Cc1ccc(CSCCNc2ncc(Cc3cccnc3)c(=O)[nH]2)cc1,124 to 126 °C
11,CC1=NC(NC(=O)Nc2cccc(C)c2)C(=O)N(CC(=O)C23CC4CC(CC(C4)C2)C3)c2c(C)cccc21 (stereo unspecified),182 to 184 °C
12,CCc1nnc(-c2ccc(N(C)C)c(C)c2)n1-c1ccc(OC)cc1,131 °C
13,COc1ccccc1CNc1ccc2cc(Nc3nnc(C4CC4)o3)ccc2n1,199 °C
14,COc1ccc(C(=O)NCc2cccc3c2C(=O)N(C2CCC(=O)NC2=O)C3=O)cc1 (stereo unspecified),193 to 195 °C
15,CCOC(=O)C(=CNc1nc(C)c(C)s1)C(=O)OCC,82 to 83.5 °C
16,O=C(CNc1ccccc1)Nc1ccccc1C(=O)O,192 to 193 °C
17,Cc1ccccc1C(=O)Nc1ccc(C(=O)N2CCCC(C)(O)c3ccccc32)cc1 (stereo unspecified),204 to 205 °C
18,CCCN(CCC)S(=O)(=O)c1cc(-c2csc(=Nc3ccccc3C)n2C)ccc1Cl,114 to 116 °C
19,CCCCCCCCCCNC(=O)C=Cc1cccc(NC(=O)/C=C\C(=O)O)c1,187 to 188 °C
20,N#Cc1ccc(-c2cn(-c3ccc(C#N)cc3)c(C(O)c3ccccc3)n2)cc1 (stereo unspecified),217 to 222 °C
21,Clc1ccc(C2(c3ccc4nccc(CCc5ccc(Cl)s5)c4c3)OCCO2)cc1,94 °C

row,Compound,melting point
1,C=Cc1nc2cc(-c3ccc(C#N)cc3)ccc2o1,143 to 144 °C
2,O=C(CCCC1CCCCCCCCCCC1)C1=C(O)CSC1=O,62 to 69 °C
3,Cc1[nH]c(-c2ccccc2)nc1C(=O)C=CN(C)C,218 to 222 °C
4,CC(C)N1CCC(Oc2ccc3[nH]ncc3c2)CC1,125 to 126 °C
5,CC(C)(O)C#Cc1nccs1,69 to 70 °C
6,CC(C)(C)OC(=O)N1CCN(c2ccc(S(=O)(=O)c3ccccc3)c(N)c2)CC1,135 to 137 °C
7,CN1CCN(C2=Nc3cc(Cl)ccc3N3CCc4cccc2c43)CC1,154 to 156 °C
8,COc1cc(OC)c(-c2cc3ccccc3s2)cc1C=O,134 to 136 °C
9,CN(NC(=O)OC(C)(C)C)C(=O)C(C)(C)ON1C(=O)c2ccccc2C1=O,140 to 145 °C
10,CC1(C)NC(=O)N(c2ccc(Oc3ccccc3)cc2)C1=O,165 °C
11,CCCOC(=O)CCc1cc(Cl)ccc1C(=O)CCCNC(C)=O,60 to 62 °C
12,ClCc1c(Cl)nnc(Cl)c1Cl,102 to 104 °C
13,COCCCN1C[C@H](O)c2cc(S(N)(=O)=O)sc2S1(=O)=O,109 to 111 °C
14,CC(=NC1CCCCC1)NC12CC3CC(CC(C3)C1)C2,185 to 187 °C
15,O=C(O)c1ccc(C(=O)N2CCOCC2)nc1,181 to 183 °C
16,CCOC(=O)/C(=N\O[C@H]1CCC[C@@H](C)C1)c1csc(N)n1 (relative stereo),91 to 93 °C
17,COC(=O)C1=C(C)NC(C)=C(C(=O)OCCN2CCN(C(c3ccc(F)cc3)c3ccc(F)cc3)CC2)C1c1cccc([N+](=O)[O-])c1 (stereo unspecified),68 to 72 °C
18,CCCCN(CCCC)CCCOc1ccc(S(=O)(=O)c2c(C(C)C)n(C)c3ccccc23)cc1,90 °C
19,CCOC(=O)c1nc2scc(COCc3ccccc3)c2c(=O)[nH]1,155 to 156 °C
